A short description of data set [1]: Pu decorporation in rats contaminated i.v. with plutonium citrate, chronic intrarectal treatment, liver and femur alpha activity. The note with it: cumulative CaNa3DTPA doses 44.3 to 307.6 μmol/kg, rectal, treatment from D+4.
For data set [2] the following is noted: oral delivery; DTPA highly polar at neutral pH; cited from earlier work.

Regarding `O=C([O-])CN(CCN(CC(=O)[O-])CC(=O)[O-])CCN(CC(=O)[O-])CC(=O)[O-].[Ca+2].[Na+].[Na+].[Na+]` [CaNa3DTPA, pentetate calcium trisodium], in data set [1], the “efficacy of decorporation in liver or bone Pu deposits as a function of cumulative dose” value is on record as “proportional to the administered dose cumulative”.

For `O=C(O)CN(CCN(CC(=O)O)CC(=O)O)CCN(CC(=O)O)CC(=O)O` [DTPA, diethylene triaminopentaacetic acid], the “absorbed when delivered orally” value in data set [2] is on record as less than 10%.

Values taken from patent US10172954B2, “Use of a reverse-micellar system for delivering chelators of radionuclides and metals” (priority 2014, dated 2019).
